According to patent US8435978B2, “Substituted sulfonamide compounds” (Gruenenthal GmbH, priority 2006, dated 2013):

What was measured:
human B1R receptor = biological target: T1, human B1R receptor (Homo sapiens, UniProt P46663); experiment: Functional study on the bradykinin receptor 1 (B1R), FLIPR Ca2+ assay, hB1R cells; type: cell-based; details: agonist Lys-Des-Arg9-bradykinin 0.5 nM, % inhibition compared with the maximum achievable inhibition; for inhibition at 10 µM: CHO-K1, test substance 10 μM, read-out: B1R Antagonism, human [10 μM] % Inhibition
T1 construct: host or cells: CHO K1 cells (Chinese hamster ovary), stably transfected
T1 sequence (P46663 1-353): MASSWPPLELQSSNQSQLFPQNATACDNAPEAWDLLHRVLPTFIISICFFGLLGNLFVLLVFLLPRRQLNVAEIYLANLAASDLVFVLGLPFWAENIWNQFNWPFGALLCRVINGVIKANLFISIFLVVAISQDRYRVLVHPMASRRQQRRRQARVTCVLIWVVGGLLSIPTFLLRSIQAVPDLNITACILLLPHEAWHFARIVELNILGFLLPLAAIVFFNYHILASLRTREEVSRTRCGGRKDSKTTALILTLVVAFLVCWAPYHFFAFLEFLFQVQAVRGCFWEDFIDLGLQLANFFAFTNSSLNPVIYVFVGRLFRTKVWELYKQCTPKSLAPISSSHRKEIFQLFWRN
Procedure, shortened: (§1)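 FLIPR Ca2+ read-out (Fluo-4, peak fluorescence) in stably transfected CHO K1 cells. Compounds at 10 μM, then 10 min later agonist challenge: human B1R with Lys-Des-Arg9-bradykinin 0.5 nM, rat B1R with Des-Arg9-bradykinin 100 nM; reported as % activation or % of maximal inhibition.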

B1R receptor of the rat = biological target: T2, B1R receptor of the rat (Rattus norvegicus, UniProt P97583); experiment: Functional study on the bradykinin receptor 1 (B1R), FLIPR Ca2+ assay, rB1R cells; type: cell-based; details: agonist Des-Arg9-bradykinin 100 nM, % inhibition compared with the maximum achievable inhibition; for inhibition at 10 µM: CHO-K1, test substance 10 μM, read-out: B1R Antagonism, rat [10 μM] % Inhibition
T2 construct: host or cells: CHO K1 cells (Chinese hamster ovary), stably transfected
T2 sequence (P97583 1-337): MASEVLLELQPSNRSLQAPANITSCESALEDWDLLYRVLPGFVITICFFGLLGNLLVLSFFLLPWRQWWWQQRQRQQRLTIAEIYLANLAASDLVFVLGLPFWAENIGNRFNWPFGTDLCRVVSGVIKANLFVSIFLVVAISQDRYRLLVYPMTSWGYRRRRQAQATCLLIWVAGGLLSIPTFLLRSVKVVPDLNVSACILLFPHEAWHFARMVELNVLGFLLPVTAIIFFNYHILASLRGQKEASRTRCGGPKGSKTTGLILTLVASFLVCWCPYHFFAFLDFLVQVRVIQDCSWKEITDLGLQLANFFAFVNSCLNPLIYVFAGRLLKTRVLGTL
Procedure, shortened: as §1

Row | inhibition at 10 µM (human B1R receptor) [%] | inhibition at 10 µM (B1R receptor of the rat) [%] | B1R Antagonism, human [10 μM] % Inhibition (human B1R receptor; test substance 10 μM, hB1R CHO K1 cells) [%] | B1R Antagonism, rat [10 μM] % Inhibition (B1R receptor of the rat; test substance 10 μM, rB1R CHO K1 cells) [%] | SMILES
1 | 6.23 | 99.6 | – | – | COc1cc(C)c(S(=O)(=O)N2CCCCC2COCC(=O)NCc2ccccc2N2CCOCC2)c(C)c1 (stereo not drawn) [Example 435, 2-((1-(4-methoxy-2,6-dimethylphenylsulfonyl)piperidin-2-yl)methoxy)-N-(2-morpholinobenzyl)acetamide]
2 | 102 | 98.6 | – | – | O=C(COCC1CCCCN1S(=O)(=O)c1c(Cl)cccc1Cl)N1CCN(c2ccccc2F)CC1 (stereo not drawn) [Example 442, 2-((1-(2,6-dichlorophenylsulfonyl)piperidin-2-yl)methoxy)-1-(4-(2-fluorophenyl)piperazin-1-yl)ethanone]
3 | 104 | 99.3 | – | – | O=C(COCC1CCCCN1S(=O)(=O)c1c(Cl)cccc1Cl)N1CCC(N2CCCC2)CC1 (stereo not drawn) [Example 443, 2-((1-(2,6-dichlorophenylsulfonyl)piperidin-2-yl)methoxy)-1-(4-(pyrrolidin-1-yl)piperidin-1-yl)ethanone]
4 | 92.8 | 98.6 | – | – | COc1cc(C)c(S(=O)(=O)N2CCCC2COCC(=O)N2CCN(Cc3ccccc3F)CC2)c(C)c1 (stereo not drawn) [Example 444, 1-(4-(2-fluorobenzyl)piperazin-1-yl)-2-((1-(4-methoxy-2,6-dimethylphenylsulfonyl)pyrrolidin-2-yl)methoxy)ethanone]
5 | 95 | 99.8 | – | – | COc1cc(C)c(S(=O)(=O)N2CCCC2COCC(=O)N(C)C(CN2CCN(C)CC2)c2ccccc2)c(C)c1 (stereo not drawn) [Example 446, 2-((1-(4-methoxy-2,6-dimethylphenylsulfonyl)pyrrolidin-2-yl)methoxy)-N-methyl-N-(2-(4-methylpiperazin-1-yl)-1-phenylethyl)acetamide]
6 | 87.4 | 99.7 | – | – | COc1cc(C)c(S(=O)(=O)N2CCCC2COCC(=O)N(C)C(CN2CCCC2)c2ccccc2)c(C)c1 (stereo not drawn) [Example 450, 2-((1-(4-methoxy-2,6-dimethylphenylsulfonyl)pyrrolidin-2-yl)methoxy)-N-methyl-N-(1-phenyl-2-(pyrrolidin-1-yl)ethyl)acetamide]
7 | 80.7 | 99.2 | – | – | COc1ccc(CN2CCN(C(=O)COCC3CCCN3S(=O)(=O)c3c(Cl)cccc3Cl)CC2)cc1 (stereo not drawn) [Example 451, 2-((1-(2,6-dichlorophenylsulfonyl)pyrrolidin-2-yl)methoxy)-1-(4-(4-methoxybenzyl)piperazin-1-yl)ethanone]
8 | 105 | 95.2 | – | – | CN(C)CCN1CCN(C(=O)COCC2CCCN2S(=O)(=O)c2c(Cl)cccc2Cl)CC1 (stereo not drawn) [Example 452, 2-((1-(2,6-dichlorophenylsulfonyl)pyrrolidin-2-yl)methoxy)-1-(4-(2-(dimethylamino)ethyl)piperazin-1-yl)ethanone]
9 | 40.5 | 74.4 | – | – | O=C(COCC1CCCN1S(=O)(=O)c1c(Cl)cccc1Cl)N1CCCCC1Cc1ccncc1 (stereo not drawn) [Example 453, 2-((1-(2,6-dichlorophenylsulfonyl)pyrrolidin-2-yl)methoxy)-1-(2-(pyridin-4-ylmethyl)piperidin-1-yl)ethanone]
10 | 102 | 100 | – | – | O=C(COCC1CCCCN1S(=O)(=O)c1c(Cl)cccc1Cl)N1CCN(Cc2ccccc2F)CC1 (stereo not drawn) [Example 454, 2-((1-(2,6-dichlorophenylsulfonyl)piperidin-2-yl)methoxy)-1-(4-(2-fluorobenzyl)piperazin-1-yl)ethanone]
11 | 103 | 99.3 | – | – | CN1CCN(C(=O)COCC2CCCCN2S(=O)(=O)c2c(Cl)cccc2Cl)C(c2ccccc2)C1 (stereo not drawn) [Example 455, 2-((1-(2,6-dichlorophenylsulfonyl)piperidin-2-yl)methoxy)-1-(4-methyl-2-phenylpiperazin-1-yl)ethanone]
12 | 100 | 101 | – | – | O=C(COCC1CCCCN1S(=O)(=O)c1c(Cl)cccc1Cl)N1CCCC1Cc1ccccn1 (stereo not drawn) [Example 456, 2-((1-(2,6-dichlorophenylsulfonyl)piperidin-2-yl)methoxy)-1-(2-(pyridin-2-ylmethyl)pyrrolidin-1-yl)ethanone]

The next lines start with the molecule.

Row | SMILES | inhibition at 10 µM (human B1R receptor) [%] | inhibition at 10 µM (B1R receptor of the rat) [%] | B1R Antagonism, human [10 μM] % Inhibition (human B1R receptor; test substance 10 μM, hB1R CHO K1 cells) [%] | B1R Antagonism, rat [10 μM] % Inhibition (B1R receptor of the rat; test substance 10 μM, rB1R CHO K1 cells) [%]
13 | COc1cc(C)c(S(=O)(=O)N2CCCCC2COCC(=O)NCc2ccc(N3CCN(C)CC3)cc2)c(C)c1 (stereo not drawn) [Example 434, 2-((1-(4-methoxy-2,6-dimethylphenylsulfonyl)piperidin-2-yl)methoxy)-N-(4-(4-methylpiperazin-1-yl)benzyl)acetamide] | 104 | 101 | – | –
14 | COc1cc(C)c(S(=O)(=O)N2CCCCC2COCC(=O)Nc2cccc(N3CCOCC3)c2)c(C)c1 (stereo not drawn) [Example 436, 2-((1-(4-methoxy-2,6-dimethylphenylsulfonyl)piperidin-2-yl)methoxy)-N-(3-morpholinophenyl)acetamide] | 39.2 | 102 | – | –
15 | COc1cc(C)c(S(=O)(=O)N2CCCCC2COCC(=O)NCc2cccc(N3CCOCC3)c2)c(C)c1 (stereo not drawn) [Example 437, 2-((1-(4-methoxy-2,6-dimethylphenylsulfonyl)piperidin-2-yl)methoxy)-N-(3-morpholinobenzyl)acetamide] | 36.1 | 102 | – | –
16 | COc1cc(C)c(S(=O)(=O)N2CCCCC2COCC(=O)Nc2ccc(N3CCOCC3)cc2)c(C)c1 (stereo not drawn) [Example 438, 2-((1-(4-methoxy-2,6-dimethylphenylsulfonyl)piperidin-2-yl)methoxy)-N-(4-morpholinophenyl)acetamide] | 22.1 | 100 | – | –
17 | COc1cc(C)c(S(=O)(=O)N2CCCCC2COCC(=O)NCc2ccc(N3CCOCC3)cc2)c(C)c1 (stereo not drawn) [Example 439, 2-((1-(4-methoxy-2,6-dimethylphenylsulfonyl)piperidin-2-yl)methoxy)-N-(4-morpholinobenzyl)acetamide] | – | – | 48.25 | 100.94
18 | COc1cc(C)c(S(=O)(=O)N2CCCC2COCC(=O)N2CCN(C)CC2c2ccccc2)c(C)c1 (stereo not drawn) [Example 445, 2-((1-(4-methoxy-2,6-dimethylphenylsulfonyl)pyrrolidin-2-yl)methoxy)-1-(4-methyl-2-phenylpiperazin-1-yl)ethanone] | 102 | 98.6 | – | –
19 | COc1cc(C)c(S(=O)(=O)N2CCCC2COCC(=O)N2CCCC2Cc2ccccn2)c(C)c1 (stereo not drawn) [Example 447, 2-((1-(4-methoxy-2,6-dimethylphenylsulfonyl)pyrrolidin-2-yl)methoxy)-1-(2-(pyridin-2-ylmethyl)pyrrolidin-1-yl)ethanone] | 66.5 | 94.2 | – | –
20 | COc1cc(C)c(S(=O)(=O)N2CCCC2COCC(=O)N2CCCC2Cc2cccc(C)n2)c(C)c1 (stereo not drawn) [Example 448, 2-((1-(4-methoxy-2,6-dimethylphenylsulfonyl)pyrrolidin-2-yl)methoxy)-1-(2-((6-methylpyridin-2-yl)methyl)pyrrolidin-1-yl)ethanone] | 85.8 | 99.8 | – | –
21 | COc1cc(C)c(S(=O)(=O)N2CCCC2COCC(=O)N2CCCCC2Cc2ccccn2)c(C)c1 (stereo not drawn) [Example 449, 2-((1-(4-methoxy-2,6-dimethylphenylsulfonyl)pyrrolidin-2-yl)methoxy)-1-(2-(pyridin-2-ylmethyl)piperidin-1-yl)ethanone] | 90.8 | 99.7 | – | –
